Assay results published in US9260429B2, “Pyrido[3,4-B]indoles and methods of use” (Medivation Technologies, Inc., priority 2008, dated 2016).

target: T1, human recombinant adrenergic α1D receptor (Homo sapiens, UniProt P25100); assay: Adrenergic α1D radioligand binding ([3H]Prozosin); conditions: 1 h; read-out: Percent Inhibition of ligand binding Adrenergic (1 μM ligand conc.) α1D
T1 construct: expressed in transfected cells; host or cells: HEK-293 cells
T1 sequence (P25100 1-572): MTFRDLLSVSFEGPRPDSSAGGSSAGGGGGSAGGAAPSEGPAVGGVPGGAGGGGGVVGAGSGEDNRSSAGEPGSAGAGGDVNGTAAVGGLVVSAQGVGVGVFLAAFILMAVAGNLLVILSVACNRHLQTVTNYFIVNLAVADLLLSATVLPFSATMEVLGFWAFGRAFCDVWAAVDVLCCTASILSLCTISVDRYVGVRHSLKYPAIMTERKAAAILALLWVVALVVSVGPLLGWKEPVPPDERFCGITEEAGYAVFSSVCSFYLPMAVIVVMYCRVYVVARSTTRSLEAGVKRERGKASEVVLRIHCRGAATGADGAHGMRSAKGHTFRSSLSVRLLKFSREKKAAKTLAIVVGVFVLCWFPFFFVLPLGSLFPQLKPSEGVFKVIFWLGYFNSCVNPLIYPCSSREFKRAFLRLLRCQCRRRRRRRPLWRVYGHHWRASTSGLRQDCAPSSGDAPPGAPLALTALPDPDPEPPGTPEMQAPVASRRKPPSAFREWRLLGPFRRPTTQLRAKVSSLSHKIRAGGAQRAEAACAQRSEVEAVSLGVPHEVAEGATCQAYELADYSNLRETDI
Description: To evaluate in radioligand binding assays the activity of compounds of the invention, human recombinant adrenergic a1D receptor expressed in human embryonic kidney (HEK-293) cells (Kenny, B. A. et al. Br. J. Pharmacol. 115(6):981, 1995) in a 50 mM Tris-HCl buffer, pH 7.4, was used. Compounds of invention were incubated with 0.6 nM [^3H]Prozosin for 60 minutes at 25° C. Non-specific binding was estimated in the presence of 10 μM phentolamine. Receptor proteins were filtered and washed, the filters were then counted to determine [^3H]Prozosin specifically bound. Compounds were screened at 1 μM or lower, using 1% DMSO as vehicle. Biochemical assay results are presented as the percent inhibition of specific binding in Table 4. Adrenergic a2A

Going from `Cc1ccc2c(c1)c1c(n2CCc2ccc(C(F)(F)F)nc2)CN(C)CC1` [Compound 5, 9-(2-(6-(trifluoromethyl)pyridin-3-yl)ethyl)-2,3,4,9-tetrahydro-2,6-dimethyl-1H-pyrido[3,4-b]indole] to `Cc1ccc(CCCn2c3c(c4cc(Cl)ccc42)CCN(C)C3)cn1` [Compound 56, 6-chloro-2-methyl-9-(3-(6-methylpyridin-3-yl)propyl)-2,3,4,9-tetrahydro-1H-pyrido[3,4-b]indole], the inhibition at 1 µM falls from 64% to 16%.

First: CC(C)CCN(C)C(=O)Cn1c2c(c3cc(Cl)ccc31)CCN(C)C2 [Compound 14, 2-(6-chloro-1,2,3,4-tetrahydro-2-methylpyrido[3,4-b]indol-9-yl)-N-isopentyl-N-methylacetamide]
Second: CN1CCc2c(n(CC(=O)N(C)C)c3ccc(Cl)cc23)C1 [Compound 16, 2-(6-chloro-1,2,3,4-tetrahydro-2-methylpyrido[3,4-b]indol-9-yl)-N,N-dimethylacetamide]
The inhibition at 1 µM of the first is higher: 33% for the first, 2% for the second.

Compared with `CN1CCc2c(n(CC(=O)Nc3ccc(F)cc3)c3ccc(Cl)cc23)C1` [Compound 15, 2-(6-chloro-1,2,3,4-tetrahydro-2-methylpyrido[3,4-b]indol-9-yl)-N-(4-fluorophenyl)acetamide], `CN1CCc2c(n(CC(C)(O)c3ccc(F)cc3)c3ccc(Cl)cc23)C1` (stereo not drawn) [Compound 62, 1-(6-chloro-2-methyl-3,4-dihydro-1H-pyrido[3,4-b]indol-9(2H)-yl)-2-(4-fluorophenyl)propan-2-ol] is higher in inhibition at 1 µM: 5% for the first, 44% for the second.

Compared with `CN1CCc2c(n(CC(=O)NC3CCCCC3)c3ccc(Cl)cc23)C1` [Compound 17, 2-(6-chloro-1,2,3,4-tetrahydro-2-methylpyvrido[3,4-b]indol-9-yl)-N-cyclohexylacetamide], `CN1CCc2c(n(CC(=O)N(C)C3CCCCC3)c3ccc(Cl)cc23)C1` [Compound 18, 2-(6-chloro-1,2,3,4-tetrahydro-2-methylpyrido[3,4-b]indol-9-yl)-N-cyclohexyl-N-methylacetamide] is higher in inhibition at 1 µM: 18% for the first, 21% for the second.

First: COC(=O)Cn1c2c(c3cc(C)ccc31)CCN(C)C2 [Compound 21, methyl 2-(1,2,3,4-tetrahydro-2,6-dimethylpyrido[3,4-b]indol-9-yl)acetate]
Second: COC(=O)Cn1c2c(c3cc(Cl)ccc31)CCN(C)C2 [Compound 54, methyl 2-(6-chloro-2-methyl-3,4-dihydro-1H-pyrido[3,4-b]indol-9(2H)-yl)acetate]
The inhibition at 1 µM of the first is lower: -7% for the first, 11% for the second.

First: CN1CCc2c(n(CCCc3ccccc3)c3ccc(Cl)cc23)C1 [Compound 29, 6-chloro-2,3,4,9-tetrahydro-2-methyl-9-(3-phenylpropyl)-1H-pyrido[3,4-b]indole]
Second: CN1CCc2c(n(CC(O)c3ccccc3)c3ccc(Cl)cc23)C1 (stereo not drawn) [Compound 71]
The inhibition at 1 µM of the first is higher: 84% for the first, 58% for the second.

Going from `CN1CCc2c(n(CCN3CCCCC3)c3ccc(Cl)cc23)C1` [Compound 34, 6-chloro-2,3,4,9-tetrahydro-2-methyl-9-(2-(piperidin-1-yl)ethyl)-1H-pyrido[3,4-b]indole] to `CN1CCc2c(n(CCCC(=O)N3CCCCC3)c3ccc(Cl)cc23)C1` [Compound 44, 4-(6-chloro-1,2,3,4-tetrahydro-2-methylpyrido[3,4-b]indol-9-yl)-1-(piperidin-1-yl)butan-1-one], the inhibition at 1 µM rises from 56% to 61%.

First: CN1CCc2c(n(CCC3CCCC3)c3ccc(Cl)cc23)C1 [Compound 35, 6-chloro-9-(2-cyclopentylethyl)-2,3,4,9-tetrahydro-2-methyl-1H-pyrido[3,4-b]indole]
Second: CN1CCc2c(n(CC(=O)N3CCCC3)c3ccc(Cl)cc23)C1 [Compound 40, 2-(6-chloro-1,2,3,4-tetrahydro-2-methylpyrido[3,4-b]indol-9-yl)-1-(pyrrolidin-1-yl)ethanone]
The inhibition at 1 µM of the first is higher: 60% for the first, 3% for the second.

Compared with `Cc1ccc2c(c1)c1c(n2CCC(=O)N2CCCCC2)CN(C)CC1` [Compound 43, 3-(1,2,3,4-tetrahydro-2,6-dimethylpyrido[3,4-b]indol-9-yl)-1-(piperidin-1-yl)propan-1-one], `Cc1ccc2c(c1)c1c(n2CC(=O)N2CCCCC2)CN(C)CC1` [Compound 57, 2-(2,6-dimethyl-3,4-dihydro-1H-pyrido[3,4-b]indol-9(2H)-yl)-1-(piperidin-1-yl)ethanone] is higher in inhibition at 1 µM: 58% for the first, 77% for the second.

Going from `CN1CCc2c(n(CC(=O)O)c3ccc(Cl)cc23)C1` [Compound 52, 2-(6-chloro-1,2,3,4-tetrahydro-2-methylpyrido[3,4-b]indol-9-yl)acetic acid] to `Cc1ccc2c(c1)c1c(n2CC(=O)O)CN(C)CC1` [Compound 53, 2-(1,2,3,4-tetrahydro-2,6-dimethylpyrido[3,4-b]indol-9-yl)acetic acid], the inhibition at 1 µM rises from -11% to 6%.

Going from `CN1CCc2c(n(CC(=O)N3CCNCC3)c3ccc(Cl)cc23)C1` [Compound 55, 2-(6-chloro-2-methyl-3,4-dihydro-1H-pyrido[3,4-b]indol-9(2H)-yl)-1-(piperazin-1-yl)ethanone] to `CN1CCc2c(n(CC(=O)N3CCCCC3)c3ccc(Cl)cc23)C1` [Compound 58, 2-(6-chloro-2-methyl-3,4-dihydro-1H-pyrido[3,4-b]indol-9(2H)-yl)-1-(piperidin-1-yl)ethanone], the inhibition at 1 µM rises from 10% to 19%.

Compared with `CN1CCc2c(n(CC(O)c3ccccc3F)c3ccc(Cl)cc23)C1` (stereo not drawn) [Compound 59, 2-(6-chloro-2-methyl-3,4-dihydro-1H-pyrido[3,4-b]indol-9(2H)-yl)-1-(2-fluorophenyl)ethanol], `Cc1ccc2c(c1)c1c(n2CC(O)c2ccccc2F)CN(C)CC1` (stereo not drawn) [Compound 60, 2-(2,6-dimethyl-3,4-dihydro-1H-pyrido[3,4-b]indol-9(2H)-yl)-1-(2-fluorophenyl)ethanol] is lower in inhibition at 1 µM: 30% for the first, 29% for the second.

Compared with `Cc1ccc2c(c1)c1c(n2CC(C)(O)c2ccc(F)cc2)CN(C)CC1` (stereo not drawn) [Compound 61, 1-(2,6-dimethyl-3,4-dihydro-1H-pyrido[3,4-b]indol-9(2H)-yl)-2-(4-fluorophenyl)propan-2-ol], `CCC1c2c(c3cc(Cl)ccc3n2CC(C)(O)c2ccc(F)cc2)CCN1C` (stereo not drawn) [Compound 79] is lower in inhibition at 1 µM: 49% for the first, 17% for the second.

First: COc1ccc(C(O)Cn2c3c(c4cc(C)ccc42)CCN(C)C3)cc1OC (stereo not drawn) [Compound 66]
Second: COc1ccc(C(O)Cn2c3c(c4cc(Cl)ccc42)CCN(C)C3)cc1OC (stereo not drawn) [Compound 70]
The inhibition at 1 µM of the first is higher: 74% for the first, 44% for the second.

Compared with `Cc1ccc2c(c1)c1c(n2CC(O)c2ccccc2)CN(C)CC1` (stereo not drawn) [Compound 67], `Cc1ccc(C(O)Cn2c3c(c4cc(C)ccc42)CCN(C)C3)cc1` (stereo not drawn) [Compound 72] is higher in inhibition at 1 µM: 85% for the first, 86% for the second.

Compared with `CCC1c2c(c3cc(Cl)ccc3n2CCc2ccc(F)cc2)CCN1C` (stereo not drawn) [Compound 78], `CC1c2c(c3cc(Cl)ccc3n2CCc2ccc(F)cc2)CCN1C` (stereo not drawn) [Compound 81] is higher in inhibition at 1 µM: 42% for the first, 64% for the second.

First: Cc1ccc(CCn2c3c(c4cc(Cl)ccc42)CCN(C)C3C)cn1 (stereo not drawn) [Compound 80]
Second: Cc1ccc2c(c1)c1c(n2/C=C/c2ccccc2)CN(C)CC1 [Compound 92]
The inhibition at 1 µM of the first is lower: 89% for the first, 97% for the second.

same assay, conditions: compound concentration 1 μM; read-out: Percentage inhibition of ligand binding to Adrenergic α1D receptor

Compound `Cc1ccc2c(c1)c1c(n2/C=C/c2ccccc2)CN(C)CC1` [Compound 92] has an inhibition at 1 µM of 97%.

target: T2, human recombinant serotonin (5-Hydroxytryptamine) 5-HT7 receptor (Homo sapiens, UniProt P34969); assay: Serotonin 5-HT7 radioligand binding ([3H]LSD); conditions: 2 h; read-out: Percent Inhibition of ligand binding Serotonin (1 μM ligand concentration) 5-HT7
T2 construct: expressed in transfected cells; host or cells: CHO cells
T2 sequence (P34969 whole entry): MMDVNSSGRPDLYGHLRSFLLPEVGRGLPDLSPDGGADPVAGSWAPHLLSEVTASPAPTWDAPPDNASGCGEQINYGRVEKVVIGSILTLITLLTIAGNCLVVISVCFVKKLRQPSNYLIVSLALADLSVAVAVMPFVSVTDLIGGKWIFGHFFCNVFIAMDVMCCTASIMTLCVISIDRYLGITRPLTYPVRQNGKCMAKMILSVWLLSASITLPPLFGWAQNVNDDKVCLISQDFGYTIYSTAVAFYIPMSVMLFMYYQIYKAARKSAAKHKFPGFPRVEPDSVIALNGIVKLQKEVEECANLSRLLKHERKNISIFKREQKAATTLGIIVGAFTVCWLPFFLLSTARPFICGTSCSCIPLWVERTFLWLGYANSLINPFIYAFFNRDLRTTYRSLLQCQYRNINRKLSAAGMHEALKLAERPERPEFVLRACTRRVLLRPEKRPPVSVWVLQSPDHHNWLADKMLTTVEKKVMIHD
Summary of the method: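 CHO-expressed human 5-HT7 receptor with 5.5 nM [3H]LSD in 50 mM Tris-HCl pH 7.4, 10 mM MgCl2, 0.5 mM EDTA, 2 h at 25 °C; nonspecific binding defined with serotonin. Filtration and counting. Compounds at ≤1 μM, 1% DMSO; % inhibition of specific binding.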

Going from `CCC1c2c(c3cc(Cl)ccc3n2CCc2ccc(F)cc2)CCN1C` (stereo not drawn) [Compound 78] to `CC1c2c(c3cc(Cl)ccc3n2CCc2ccc(F)cc2)CCN1C` (stereo not drawn) [Compound 81], the inhibition at 1 µM falls from 99% to 82%.

Compared with `CCC1c2c(c3cc(Cl)ccc3n2CC(C)(O)c2ccc(F)cc2)CCN1C` (stereo not drawn) [Compound 79], `Cc1ccc(CCn2c3c(c4cc(Cl)ccc42)CCN(C)C3C)cn1` (stereo not drawn) [Compound 80] is lower in inhibition at 1 µM: 85% for the first, 82% for the second.
